Experimental data as given in paper PMC11073699, “Odorant receptors for floral- and plant-derived volatiles in the yellow fever mosquito, Aedes aegypti (Diptera: Culicidae)” (PLOS ONE, 2024).

molecular target: T1, AaegOR71 (Aedes aegypti, UniProt A0A3S7SHD4); test: Two-electrode voltage clamp of Xenopus laevis oocytes expressing AaegOR71/Orco (blends, unitary compounds, concentration-response); type: cell-based; settings: Indoles 2 unitary compounds; oocyte 1
T1 sequence (A0A3S7SHD4 1-415): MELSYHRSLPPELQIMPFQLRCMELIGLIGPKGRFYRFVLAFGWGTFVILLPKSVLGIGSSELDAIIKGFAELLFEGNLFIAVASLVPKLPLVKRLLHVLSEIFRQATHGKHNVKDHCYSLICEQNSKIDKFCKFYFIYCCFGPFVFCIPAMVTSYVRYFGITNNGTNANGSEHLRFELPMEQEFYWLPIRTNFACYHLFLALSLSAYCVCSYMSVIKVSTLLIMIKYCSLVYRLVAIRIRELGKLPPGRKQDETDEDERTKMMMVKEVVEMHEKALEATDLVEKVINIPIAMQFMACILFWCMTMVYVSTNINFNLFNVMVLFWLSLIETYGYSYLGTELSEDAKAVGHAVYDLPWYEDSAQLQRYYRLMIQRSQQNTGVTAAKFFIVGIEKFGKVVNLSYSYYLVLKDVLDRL
T1 sequence (Q178U6 1-478 partner): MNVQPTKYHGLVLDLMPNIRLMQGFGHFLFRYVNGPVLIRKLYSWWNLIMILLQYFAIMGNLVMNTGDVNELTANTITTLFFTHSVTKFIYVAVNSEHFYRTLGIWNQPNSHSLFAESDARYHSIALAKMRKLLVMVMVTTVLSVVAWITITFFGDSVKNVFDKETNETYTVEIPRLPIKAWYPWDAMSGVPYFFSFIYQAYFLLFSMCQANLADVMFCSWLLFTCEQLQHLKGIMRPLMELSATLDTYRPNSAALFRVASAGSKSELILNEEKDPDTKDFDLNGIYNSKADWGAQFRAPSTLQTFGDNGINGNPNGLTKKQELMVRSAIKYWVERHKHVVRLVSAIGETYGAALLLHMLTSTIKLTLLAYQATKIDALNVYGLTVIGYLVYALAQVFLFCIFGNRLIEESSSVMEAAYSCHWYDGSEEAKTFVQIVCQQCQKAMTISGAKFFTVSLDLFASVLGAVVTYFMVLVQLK
Source text: (§1) The coding regions of ten AaegOR genes of interest (S3 File) and AaegOrco were synthesized by Twist Bioscience (San Francisco, CA, USA) and cloned into the pENTR plasmid. The Gateway LR directional cloning system (Invitrogen Corp., Carlsbad, CA, USA) was utilized to subclone AaegOR coding regions into the pSP64t-RFA oocyte expression plasmid. Plasmids were purified using the GeneJet Plasmid Miniprep Kit (ThermoFisher Scientific, Waltham, MA, USA). Purified plasmids were sequenced in both directions to confirm coding regions.
(§2) Chemical compounds (S6 File) used in the deorphanization of AaegORs were purchased from Acros Organics (Morris, NJ, USA), Alfa Aesar (Ward Hill, MA, USA), and ThermoFisher Scientific (Waltham, MA, USA) at the highest purity available. Compounds were stored as 1M stocks in 100% DMSO. Serial dilutions of each compound were prepared in 10% DMSO and blended by chemical class.
(§3) pSP64t-RFA: AaegOR clones were linearized using Xbal, and cRNAs were synthesized using the mMESSAGE mMACHINE ® SP6 kit (Life Technologies, Carlsbad, CA, USA). Xenopus laevis stage V-VII oocytes purchased from Xenopus1 (Dexter, MI, USA) were stored at 18°C in Incubation medium (ND96 96 with 5% dialyzed horse serum, 50μg/mL gentamycin, 100μg/mL streptomycin, 100μg/mL penicillin, and 550μg/mL sodium pyruvate). 30nL of cRNA was injected into multiple oocytes using a microinjection syringe pump (World Precision Instruments, Sarasota, FL, USA) maintained at 18°C for 48–72 hrs. Odorant blends were perfused across individual oocytes for 10–15 seconds, held at a resting membrane potential of -80 mV using an OC-725C oocyte clamp (Warner Instruments, LLC, Hamden, CT, USA). Induced currents were measured indirectly using the two-electrode voltage clamp technique (TEVC). Following each stimulus, currents were allowed to return to baseline before further stimulation. Data was captured using the Digidata 1550 B digitizer and PClamp10 software (Molecular Devices, San Jose, CA, USA). Concentration-response curves were generated by perfusing unitary odorants over oocytes at increasing concentrations from [10^-3M] to [10^-9M]. Data were analyzed using GraphPad Prism 8 (GraphPad Software Inc., La Jolla, CA, USA). At least two biological replicates were conducted at each concentration and for each compound. Data for at least seven oocytes responding to each compound was analyzed (S7 File).

Going from `O=C1Nc2ccccc2C1=O` [Isatin] to `O=C1Cc2ccccc2N1` [Oxindole], the “Raw Data (Response in nA) Oocyte 1” value falls from 150 nA to 0 nA.

Going from `c1ccc2ncncc2c1` [Quinazoline] to `c1ccc2ncccc2c1` [Quinoline], the “Raw Data (Response in nA) Oocyte 1” value rises from 70 nA to 900 nA.

In the case of `c1ccc2nccnc2c1` [Quinoxaline], the “Raw Data (Response in nA) Oocyte 1” value is reported as 0 nA.

same assay, conditions: Indoles 2 unitary compounds; oocyte 2

Going from `O=C1Nc2ccccc2C1=O` [Isatin] to `O=C1Cc2ccccc2N1` [Oxindole], the “Raw Data (Response in nA) Oocyte 2” value rises from 0 nA to 20 nA.

Compared with `c1ccc2ncncc2c1` [Quinazoline], `c1ccc2ncccc2c1` [Quinoline] is higher in “Raw Data (Response in nA) Oocyte 2” value: 440 nA for the first, 2210 nA for the second.

`c1ccc2nccnc2c1` [Quinoxaline] was tested, and the “Raw Data (Response in nA) Oocyte 2” value was 620 nA.

same assay, conditions: Indoles 2 unitary compounds; oocyte 3

`O=C1Nc2ccccc2C1=O` [Isatin] and `O=C1Cc2ccccc2N1` [Oxindole] are the same in “Raw Data (Response in nA) Oocyte 3” value: 0 nA for the first, 0 nA for the second.

Compared with `c1ccc2ncncc2c1` [Quinazoline], `c1ccc2ncccc2c1` [Quinoline] is higher in “Raw Data (Response in nA) Oocyte 3” value: 45 nA for the first, 330 nA for the second.

In the case of `c1ccc2nccnc2c1` [Quinoxaline], the “Raw Data (Response in nA) Oocyte 3” value is reported as 85 nA.

same assay, conditions: Indoles 2 unitary compounds; oocyte 4

Going from `O=C1Nc2ccccc2C1=O` [Isatin] to `O=C1Cc2ccccc2N1` [Oxindole], the “Raw Data (Response in nA) Oocyte 4” value rises from 0 nA to 10 nA.

Going from `c1ccc2ncncc2c1` [Quinazoline] to `c1ccc2ncccc2c1` [Quinoline], the “Raw Data (Response in nA) Oocyte 4” value rises from 250 nA to 1050 nA.

With `c1ccc2nccnc2c1` [Quinoxaline] the “Raw Data (Response in nA) Oocyte 4” value was 370 nA.

same assay, conditions: Indoles 2 unitary compounds; oocyte 5

`O=C1Nc2ccccc2C1=O` [Isatin] and `O=C1Cc2ccccc2N1` [Oxindole] are the same in “Raw Data (Response in nA) Oocyte 5” value: 0 nA for the first, 0 nA for the second.

First: c1ccc2ncncc2c1 [Quinazoline]
Second: c1ccc2ncccc2c1 [Quinoline]
The “Raw Data (Response in nA) Oocyte 5” value of the first is lower: 40 nA for the first, 300 nA for the second.

With `c1ccc2nccnc2c1` [Quinoxaline] the “Raw Data (Response in nA) Oocyte 5” value was 60 nA.

same assay, conditions: Indoles 2 unitary compounds; oocyte 6

Compared with `O=C1Nc2ccccc2C1=O` [Isatin], `O=C1Cc2ccccc2N1` [Oxindole] is higher in “Raw Data (Response in nA) Oocyte 6” value: 0 nA for the first, 10 nA for the second.

Going from `c1ccc2ncncc2c1` [Quinazoline] to `c1ccc2ncccc2c1` [Quinoline], the “Raw Data (Response in nA) Oocyte 6” value rises from 150 nA to 760 nA.

In the case of `c1ccc2nccnc2c1` [Quinoxaline], the “Raw Data (Response in nA) Oocyte 6” value is reported as 200 nA.

same assay, conditions: Indoles 2 unitary compounds; oocyte 7

Going from `O=C1Nc2ccccc2C1=O` [Isatin] to `O=C1Cc2ccccc2N1` [Oxindole], the “Raw Data (Response in nA) Oocyte 7” value falls from 10 nA to 5 nA.

Compared with `c1ccc2ncncc2c1` [Quinazoline], `c1ccc2ncccc2c1` [Quinoline] is higher in “Raw Data (Response in nA) Oocyte 7” value: 50 nA for the first, 210 nA for the second.

For `c1ccc2nccnc2c1` [Quinoxaline], the “Raw Data (Response in nA) Oocyte 7” value was 80 nA.

same assay, conditions: Indoles 2 unitary compounds; oocyte 8

First: O=C1Nc2ccccc2C1=O [Isatin]
Second: O=C1Cc2ccccc2N1 [Oxindole]
The “Raw Data (Response in nA) Oocyte 8” value of the first is lower: 0 nA for the first, 20 nA for the second.

Compared with `c1ccc2ncncc2c1` [Quinazoline], `c1ccc2ncccc2c1` [Quinoline] is higher in “Raw Data (Response in nA) Oocyte 8” value: 40 nA for the first, 250 nA for the second.

With `c1ccc2nccnc2c1` [Quinoxaline] the “Raw Data (Response in nA) Oocyte 8” value was 70 nA.

molecular target: T2, AaegOR6 (Aedes aegypti, UniProt A0A1S4G757); test: Two-electrode voltage clamp of Xenopus laevis oocytes expressing AaegOR6/Orco (blends, unitary compounds, concentration-response); type: cell-based; settings: Indoles 2 unitary compounds; oocyte 1
T2 sequence (A0A1S4G757 1-398): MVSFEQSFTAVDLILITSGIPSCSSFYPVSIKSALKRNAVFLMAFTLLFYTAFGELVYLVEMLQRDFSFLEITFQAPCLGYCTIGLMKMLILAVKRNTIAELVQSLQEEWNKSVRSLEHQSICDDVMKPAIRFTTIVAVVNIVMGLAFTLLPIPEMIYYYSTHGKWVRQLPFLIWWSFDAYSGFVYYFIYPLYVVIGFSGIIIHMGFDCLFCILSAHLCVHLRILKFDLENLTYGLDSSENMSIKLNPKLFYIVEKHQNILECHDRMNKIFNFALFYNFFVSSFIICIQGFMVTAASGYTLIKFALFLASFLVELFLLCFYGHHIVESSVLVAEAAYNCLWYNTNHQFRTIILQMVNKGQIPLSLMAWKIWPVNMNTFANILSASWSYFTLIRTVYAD
T2 sequence (Q178U6 1-478 partner): T1 sequence (Q178U6 1-478 partner)
Source text: as §1, §2, §3

`O=C1Nc2ccccc2C1=O` [Isatin] and `O=C1Cc2ccccc2N1` [Oxindole] are the same in “Raw data (Responses in nA) Oocyte 1” value: 0.0 nA for the first, 0.0 nA for the second.

`c1ccc2ncncc2c1` [Quinazoline] and `c1ccc2ncccc2c1` [Quinoline] are the same in “Raw data (Responses in nA) Oocyte 1” value: 0.0 nA for the first, 0.0 nA for the second.

For `c1ccc2nccnc2c1` [Quinoxaline], the “Raw data (Responses in nA) Oocyte 1” value was 0.0 nA.

same assay, conditions: Indoles 2 unitary compounds; oocyte 2

`O=C1Nc2ccccc2C1=O` [Isatin] and `O=C1Cc2ccccc2N1` [Oxindole] are the same in “Raw data (Responses in nA) Oocyte 2” value: 0.0 nA for the first, 0.0 nA for the second.

`c1ccc2ncncc2c1` [Quinazoline] and `c1ccc2ncccc2c1` [Quinoline] are the same in “Raw data (Responses in nA) Oocyte 2” value: 0.0 nA for the first, 0.0 nA for the second.

`c1ccc2nccnc2c1` [Quinoxaline] was tested, and the “Raw data (Responses in nA) Oocyte 2” value was 0.0 nA.

same assay, conditions: Indoles 2 unitary compounds; oocyte 3

First: O=C1Nc2ccccc2C1=O [Isatin]
Second: O=C1Cc2ccccc2N1 [Oxindole]
The “Raw data (Responses in nA) Oocyte 3” value of the first is higher: 10.0 nA for the first, 0.0 nA for the second.

`c1ccc2ncncc2c1` [Quinazoline] and `c1ccc2ncccc2c1` [Quinoline] are the same in “Raw data (Responses in nA) Oocyte 3” value: 0.0 nA for the first, 0.0 nA for the second.

With `c1ccc2nccnc2c1` [Quinoxaline] the “Raw data (Responses in nA) Oocyte 3” value was 0.0 nA.

same assay, conditions: Indoles 2 unitary compounds; oocyte 4

`O=C1Nc2ccccc2C1=O` [Isatin] and `O=C1Cc2ccccc2N1` [Oxindole] are the same in “Raw data (Responses in nA) Oocyte 4” value: 0.0 nA for the first, 0.0 nA for the second.

`c1ccc2ncncc2c1` [Quinazoline] and `c1ccc2ncccc2c1` [Quinoline] are the same in “Raw data (Responses in nA) Oocyte 4” value: 0.0 nA for the first, 0.0 nA for the second.

With `c1ccc2nccnc2c1` [Quinoxaline] the “Raw data (Responses in nA) Oocyte 4” value was 0.0 nA.

same assay, conditions: Indoles 2 unitary compounds; oocyte 5

`O=C1Nc2ccccc2C1=O` [Isatin] and `O=C1Cc2ccccc2N1` [Oxindole] are the same in “Raw data (Responses in nA) Oocyte 5” value: 0.0 nA for the first, 0.0 nA for the second.

`c1ccc2ncncc2c1` [Quinazoline] and `c1ccc2ncccc2c1` [Quinoline] are the same in “Raw data (Responses in nA) Oocyte 5” value: 0.0 nA for the first, 0.0 nA for the second.

With `c1ccc2nccnc2c1` [Quinoxaline] the “Raw data (Responses in nA) Oocyte 5” value was 0.0 nA.

same assay, conditions: Indoles 2 unitary compounds; oocyte 6

`O=C1Nc2ccccc2C1=O` [Isatin] and `O=C1Cc2ccccc2N1` [Oxindole] are the same in “Raw data (Responses in nA) Oocyte 6” value: 0.0 nA for the first, 0.0 nA for the second.

`c1ccc2ncncc2c1` [Quinazoline] and `c1ccc2ncccc2c1` [Quinoline] are the same in “Raw data (Responses in nA) Oocyte 6” value: 10.0 nA for the first, 10.0 nA for the second.

With `c1ccc2nccnc2c1` [Quinoxaline] the “Raw data (Responses in nA) Oocyte 6” value was 0.0 nA.

same assay, conditions: Indoles 2 unitary compounds; oocyte 7

`O=C1Nc2ccccc2C1=O` [Isatin] and `O=C1Cc2ccccc2N1` [Oxindole] are the same in “Raw data (Responses in nA) Oocyte 7” value: 0.0 nA for the first, 0.0 nA for the second.

First: c1ccc2ncncc2c1 [Quinazoline]
Second: c1ccc2ncccc2c1 [Quinoline]
The “Raw data (Responses in nA) Oocyte 7” value of the first is lower: 0.0 nA for the first, 10.0 nA for the second.

For `c1ccc2nccnc2c1` [Quinoxaline], the “Raw data (Responses in nA) Oocyte 7” value was 0.0 nA.

same assay, conditions: Indoles 2 unitary compounds; oocyte 8

Going from `O=C1Nc2ccccc2C1=O` [Isatin] to `O=C1Cc2ccccc2N1` [Oxindole], the “Raw data (Responses in nA) Oocyte 8” value rises from 0.0 nA to 10.0 nA.

`c1ccc2ncncc2c1` [Quinazoline] and `c1ccc2ncccc2c1` [Quinoline] are the same in “Raw data (Responses in nA) Oocyte 8” value: 0.0 nA for the first, 0.0 nA for the second.

For `c1ccc2nccnc2c1` [Quinoxaline], the “Raw data (Responses in nA) Oocyte 8” value was 0.0 nA.
